How the values were obtained:
C2C12 myoblasts = assay: C2C12 myoblast proliferation assay (methylene blue endpoint); assay type: cell-based, murine; details: recombinant myostatin at 2.25 μg/ml in control medium
Procedure: A polypeptide of the invention, or a fragment, variant or derivative thereof has the biological function of antagonising myostatin activity. To determine whether a polypeptide of the invention, or a fragment, variant or derivative thereof, is able to antagonise myostatin activity, such activity can be tested by growing myoblasts in the presence or absence (control) of a candidate polypeptide of the invention. […]
The myoblast proliferation assay was carried out in uncoated 96-well microtitre plates. C2C12 cultures were seeded at 1000 cells/well. Following a 16-hour attachment period, test media containing either recombinant wild type myostatin or different myostatin antagonists were added and cells were incubated for a further 48 or 72 hour period. For competition assay, wild type myostatin was competed with different concentrations of myostatin antagonists prior to the addition into the media. After the incubation period, proliferation was assessed using methylene blue photometric endpoint assay as previously described (Thomas et al, 2000).

p-FoxO1 = assay: In vitro cancer cachexia trial: p-FoxO1 Western blot in C2C12 myotubes; assay type: cell-based, murine; details: 6 μg/mL recombinant Myostatin; 24 hour treatment; C2C12 myotubes
Procedure: C2C12 cells were differentiated for 72 hours in differentiation media (DMEM+2% HS). Following this period of differentiation the myotubes were tested with recombinant myostatin at 6 μg/mL or a combination of both myostatin and 300 recombinant protein at 30, 60, 90 or 120 μg/mL for further 24 hours to determine if 300 can rescue myostatin-mediated muscle wasting in vitro. Gene expression changes of intermediate signalling molecules critical in myostatin-mediated cachexia were analysed. Therefore, protein was isolated from cells and Western blot analysis was performed to measure protein expression levels for p-FoxO1, which we have shown to be a critical signalling intermediates in Myostatin-mediated cachexia (McFarlane et al 2006).

primary myoblasts = assay: Myoblast chemotaxis assay, effect of recombinant myostatin; assay type: cell-based; details: recombinant myostatin at 2.5 μg/ml in control (CEE) medium; myoblasts from old (2 year old) mice
Procedure: Primary myoblasts were cultured from the hind limb muscle of young (4 to 6 week old) or old (24 month old) mice, according to the published protocols (Allen et al., 1997; Partridge, 1997). Briefly, muscles were minced, and digested in 0.2% collagenase type 1A for 90 min. Cultures were enriched for myoblasts by pre-plating on uncoated plates for 3 hours. Myoblast cultures were maintained in growth media (GM) supplemented with 20% fetal calf serum (FCS), 10% HS and 1% CEE on 10% Matrigel coated plates, at 37° C./5% CO2. The extent of culture purity was assessed by flow cytometry analysis of MyoD expression after 48 hours in culture. Cells were harvested using trypsin, suspended at a concentration of 10^6 cells/200 μl and fixed overnight in 5 ml 70% ethanol at −20° C. Staining was performed for 30 min at room temperature using rabbit polyclonal anti-MyoD, 1:200 (Santa Cruz), followed by Alexa fluor 488 anti-rabbit conjugate, 1:500 (Molecular Probes). Analysis was carried out in duplicate with 10^4 cell events collected in each assay. Debris was excluded by gating on forward and side scatter profiles. Cells were analyzed by FACScan (Becton Dickinson). […]
For the chemotaxis assay of myoblasts, a first assay was carried out on myoblasts from 2 year old mice as follows. […] Migrated cells were counted on four representative fields per membrane and the average number plotted. […]

Substance: recombinant myostatin: recombinant wild type myostatin (GDF-8), negative regulator of muscle growth, added to inhibit myoblasts [reference compound]
- inhibition of myoblast proliferation (C2C12 myoblasts; after 48 hours): 25%
- inhibition of myoblast proliferation (C2C12 myoblasts; after 72 hours): about 10%
- p-FoxO1 expression (normalised to total FoxO1) (p-FoxO1): down-regulation
- decrease in the number of migrated myoblasts (primary myoblasts): approximately 78%

Source: patent US8309068B2, “Isolated polypeptides and methods of improving muscle strength” (Myostin Therapeutics Pty Ltd., priority 2006, dated 2012)
